Several values for one entry are separate records, joined by “and”; a condition that tells them apart may be missing. Identical values can stand only once.
Legend:
male germ cells = type: in vivo; settings: middle stages (VII-VIII); same doses; 24 hours; monohydrate
Protocol: (§1) For the HN analog experiments, male mice were divided into seven groups (n=4-5 per group) and received one of the following treatments and sacrificed after 24 hours: 1) vehicle (control); 2) a single intra-peritoneal (IP) injection of HN peptide [HN, 40 mg/Kg body weight (BW)]; 3) a single IP injection of CP (CP, 200 mg/Kg BW); 4) IP injection of CP and HN (CP+HN); 5) a single IP injection of each HN analog (HNG 5 mg/Kg BW, HNG-F6A 5 mg/Kg BW, HN-S7A 40 mg/Kg BW, HN-C8P 40 mg/Kg BW, or HN-L12A 40 mg/Kg BW); 6) IP injection of CP and each HN analog (CP+HNG, HNG-F6A, HN-S7A, HN-C8P, or HN-L12A); and 7) IP injection of CP+HN+HN analog (HN-S7A, HN-C8P, or HN-L12A; to assess whether the analogs has enhancing or inhibitory effect on HN).
(§2) To facilitate testicular fixation by using a whole-body perfusion technique, all animals were injected with heparin (130 IU/100 g BW, IP) 15 min before a lethal injection of sodium pentobarbital (200 mg/kg BW, IP) (Lue Y H, et al., 1999). One testis was removed and weighed after perfusion with saline. Portions of testicular parenchyma were snap frozen in liquid nitrogen, and stored at −80 C for Western blotting. The other testis was fixed by vascular perfusion with Bouin's solution, and processed with routine paraffin embedding for in situ detection of apoptosis.
Detection of apoptotic cells was performed in Bouin's'-fixed, paraffin-embedded testicular sections by the terminal deoxynucleotidyl transferase (TdT)-mediated deoxy-UTP nick end labeling (TUNEL) technique (Sinha Hikim A P, et al., 1997) using an ApopTag-peroxidase kit (Chemicon International, Inc., Temecula, Calif.). Enumeration of the Sertoli cell nuclei with distinct nucleoli and apoptotic germ cell population was quantified at stages I-IV (early stages), stages VII-VIII (middle stages) and stages XI-XII (late stages) of the seminiferous epithelial cycle using an Olympus BH-2 microscope (New Hyde Park, N.Y.). Stages were identified according to the criteria proposed by Russell et al for paraffin sections (Russell L, 1977). The rate of germ cell apoptosis (apoptotic index, AI) was expressed as the number of apoptotic germ cells per Sertoli cells (Sinha Hikim A P, et al., 1997).

sperm output = assay: Cauda epididymal sperm count after multiple doses of CP; type: in vivo, mouse; settings: 28 days; HNG 10 mg/kg BW daily SC; CP 150 mg/kg BW IP, 6 doses at 5-day intervals
Protocol: The objective of this study was to investigate whether HNG has protective effect on sperm output after multiple doses of CP in mice. Thirty adult male mice (C57BL/6J) were randomized into 4 groups: 1) 5 as control; 2) 5 received daily subcutaneously injection of HNG (10 mg/kg BW); 3) 10 were given 6 doses of CP (150 mg/kg BW) intraperitoneally at 5-day intervals; 4) 10 received both HNG and CP. All mice were killed at 28 days. Plasma HNG and IGF-1 levels were measured by ELISAs. The cauda epididymal sperm count was performed using a hemocytometer.

germ cells = settings: HNG 5 mg/kg/BW IP or CP 200 mg/kg/BW IP, 24 hours
Protocol: To examine the protective effects of HNG on germ cells, adult mice were treated with vehicle (control); HNG (5 mg/kg/BW, intraperitoneal injection IP); CP (200 mg/kg/BW, IP); and CP+HNG for 24 hours.

[1] = system: Ser727-phosphorylated STAT3; assay: STAT3 phosphorylation in testis by western blot; type: in vivo, mouse; settings: testis homogenates; single agent
Protocol: as §1, §2
Western blotting was performed as described previously (Jia Y, et al., 2009). […]

ovaries = type: in vivo; settings: HNG 5 mg/kg/day IP or CP 100 mg/Kg single IP, day 14
Protocol: A mouse mammary cancer model was used which utilizes 4T1 cells transfected with the luciferase gene. Growth and size of 4T1 mammary tumors were detected by bioluminescence imaging (IVIS Luminia II, Perkin Elmer, Waltham, Mass.). Mice (n=5 to 7 per group) were inoculated with 1×10^6 4T1 cells into the right third mammary gland, and 7 days later they were left untreated or treated with HNG (5 mg/kg/day IP), CP (100 mg/Kg single IP) or HNG+CP for 14 days. Animals were sacrificed and both ovaries were removed from each mouse on day 14 after the start of treatment. Serial 5-micrometer sections were made. Every 5th section was examined and the number of primordial, primary, and secondary follicles counted (Kim S Y, et al., 2013; Bristol-Gould S K, et al., 2006; Roti Roti E C, et al., 2012). In addition, TUNEL staining for apoptotic cells and oocytes was quantified (Perez G I, et al., 1997; Ben-Aharon I, et al., 2010).

testosterone = settings: with or without EDS pre-treatment
4T1 mammary cancer = assay: 4T1 mouse mammary cancer model, tumor size and weight; settings: in vivo
Protocol: A mouse mammary cancer model was used which utilizes 4T1 cells transfected with the luciferase gene. Growth and size of 4T1 mammary tumors were detected by bioluminescence imaging (IVIS Luminia II, Perkin Elmer, Waltham, Mass.). Mice (n=5 to 7 per group) were inoculated with 1×10^6 4T1 cells into the right third mammary gland, and 7 days later they were left untreated or treated with HNG (5 mg/kg/day IP), CP (100 mg/Kg single IP) or HNG+CP for 14 days. Bioluminescence imaging was conducted at days 7 and 12. Animals were sacrificed and tumors were removed on day 14 after the start of treatment. Mammary tumors were smaller in CP and CP+HNG groups compared to the untreated and HNG-treated animals (Data images not shown).

Question: For O=P1(N(CCCl)CCCl)NCCCO1 (centres unmarked) [CP, cyclophosphamide monohydrate], which “apoptotic index (AI, apoptotic germ cells per Sertoli cell)” value (male germ cells) is on record?
Answer: The value was 0.25±0.03 and 0.33±0.03.

Question: And the epididymal sperm counts (sperm output)?
Answer: Its epididymal sperm counts is 0.5±0.1 ×10^6/mg.

Question: What about the “germ cell apoptosis vs control” value (germ cells) of the same compound?
Answer: Its value is “significantly increased”.

Question: What about the “STAT3 phosphorylation compared with control” value [1] of the same compound?
Answer: Its value is “suppressed”.

Question: What about the “ovarian follicles in representative sections” value (ovaries) of the same compound?
Answer: The value was “less secondary, but more atretic follicles”.

Question: And the intratesticular testosterone levels (testosterone)?
Answer: Its intratesticular testosterone levels is “no significant effects”.

Question: And the serum testosterone levels (testosterone)?
Answer: The serum testosterone levels was “no significant effects”.

Question: And the “mammary tumor size and weight” value (4T1 mammary cancer)?
Answer: The value was “smaller”.

Reference: patent US9937227B2, “Humanin, analogs and cancer treatment methods and uses thereof” (LOS ANGELES BIOMEDICAL RESEARCH INSTITUTE AT HARBOR-UCLA …, priority 2014, dated 2018)
